How the values were obtained:
[1] = test system: memory loss, cognitive, emotional ailments
Protocol: In most cases, treatment of these ailments requires multiple dosages of 5 mg to 20 mg over the course of the day.

[2] = test system: symptoms of cognitive ailments; test: Case study Patient 6: person with cognitive ailments, single morning dose; type: in vivo, human
[3] = test system: decreased concentration and focus, memory recall and forgetfulness issues; test: Case study Patient 4: person with decreased concentration, focus and memory recall, plus depression and anxiety; type: in vivo, human; conditions: 10 mg in the morning along with an antidepressant, additional 10 mg about every 2 hours during waking hours
Description: A person with symptoms of decreased concentration and focus along with memory recall and forgetfulness issues. The patient was also diagnosed with depression and anxiety.

[4] = test system: symptoms of cognitive ailments; conditions: Patient 3
[5] = test system: mild symptoms of forgetfulness; test: Case study Patient 2: person with mild symptoms of forgetfulness
[6] = test system: forgetfulness and problems with word recall; test: Case study Patient 5: person with forgetfulness and word recall problems
[7] = test system: mild permanent cognitive and short term memory loss; test: Case study Patient 1: mild permanent cognitive and short term memory loss after mold exposure; type: in vivo, human
Protocol: A case study of a patient having a long history of allergies was performed.
A typical dosage of the Singulair® is about 10 mg.
A 10 mg tablet can be taken orally upon awakening. […] In a typical implementation, the patient can take another 10 mg dose in about two hours after the initial dose. […] Similar booster dosages can be taken at 3-4 hour intervals throughout the day. […] The Singulair® product typically recommends 10 mg per day.
In another embodiment, a zafirlukast product such as Accolate® and Vanticon® can be implemented. In one implementation, a 20 mg oral dose can be taken upon awakening followed by a 10 mg dose after 2 hours and a 10 mg repeated dose in 4 hours and a final dose of 20 mg another 4 hours later. […] The Accolate® recommended dosage is 20 mg in the morning and evening.

For `CC(C)(O)c1ccccc1CC[C@@H](SCC1(CC(=O)[O-])CC1)c1cccc(/C=C/c2ccc3ccc(Cl)cc3n2)c1.[Na+]` [montelukast sodium], the “mood with large immediate release dosages” value ([1]; immediate release dosages larger than 30 mg) was “improved mood”, the “effect on ailments (overall finding)” value ([1]; in most cases multiple dosages of 5 mg to 20 mg over the day) was “alleviate and treat memory loss, forgetfulness, apathy, emotional and cognitive ailments, and depression” and the “mental clarity and mood” value ([2]; 50 mg once upon rising in the morning) was “improved mental clarity in the morning and better mood throughout the day”. For the same compound, the “mental clarity and mood” value ([2]; 80 mg once upon rising in the morning) was “improved mental clarity in the morning and better mood throughout the day”, the symptoms [3] was “significant improvement in symptoms” and the side effects [4] was “No side effects noted”. For the same compound, the “symptoms while on medication” value ([4]; 10 mg in the morning, additional 10 mg about every 2 hours during waking hours) was “significant improvement in symptoms”, the side effects [5] was “No side effects reported” and the “time to improvement in symptoms after onset of medication use” value ([5]; 20 mg in the morning, additional 10-20 mg about every 2 hours during waking hours) was ≤ 24 h. The “symptoms after stopping second course” value ([5]; after the five-day course was stopped) was “the symptoms returned again”, the “time to recurrence of symptoms after discontinuation” value ([5]; stopped after over a week) was ≤ 24 h and the “symptoms during second course” value ([5]; two weeks later, same regimen for five days) was “marked improvement in symptoms”. For the same compound, the other side effects [6] was “No other side effects noted”, the “time to improvement after initiation of the protocol” value [6] was ≤ 24 h and the “memory and recall issues” value ([6]; 10 mg in the morning, additional 10 mg about every 2 hours during waking hours, five days) was “significant improvement in memory and recall issues”. The “sleep (side effect) at 6 doses daily” value ([6]; 6 doses of 10 mg daily) was “difficulty sleeping”, the “time to recurrence of symptoms after discontinuation” value ([6]; discontinued after five days) was 24 to 48 h and the “sleep (side effect) at five doses daily” value ([6]; schedule reduced to five doses daily) was “the problem was resolved”. The “time to relief / marked improvement after the initial higher dosage” value ([7]; Patient 1, 20-30 mg upon waking) was 30 to 45 min, the apathy ([7]; Patient 1, about 20-30 mg) was “marked decrease in apathy” and the sense of humor ([7]; Patient 1, about 20-30 mg) was “increase in sense of humor”. The “cognitive, mental and emotional improvement” value ([7]; Patient 1, about 20-30 mg (2-3 times the typical dosage)) was “marked cognitive, mental and emotional improvement”, the “effect of additional doses on relief” value ([7]; Patient 1, additional 10 mg dose every four hours) was “continues the relief” and the “time to return of symptoms after ceasing the dosage” value ([7]; Patient 1, after the dosage is ceased) was ≤ 24 h. For the same compound, the “cognitive effect when taking the medication” value ([7]; Patient 1, as prescribed for allergies, typical dosage about 10 mg) was “cognitive improvement” and the “mental state under mega-dosing” value ([7]; booster dosages of 5 mg about every 2 hours, maximum 40 mg in one day) was “very talkative mental states and highly sensitive mental alertness”.
With `COc1cc(C(=O)NS(=O)(=O)c2ccccc2C)ccc1Cc1cn(C)c2ccc(NC(=O)OC3CCCC3)cc12` [Accolate®, zafirlukast] the focus and disposition ([7]; Patient 1, oral 20 mg upon awakening, 10 mg after 2 hours, 10 mg after 4 hours, 20 mg 4 hours later, highest daily dosage 80 mg) was “heightened focus but results in a less “wired” disposition”.

From patent US9149472B2, “Controlled release compositions for treatment of cognitive, emotional and mental ailments and disorders” (priority 2004, dated 2015)
